Calls of active or inactive are those of the source. No cut-off for these calls is given here.
Legend:
Fusarium verticillioides [1] = assay: Antifungal activity against Fusarium verticillioides assessed as reduction in colony diameter at 10 to 160 g/l incubated for 15 min followed by compound washout measured after 7 days in presence of surfactant APSA 80 relative to control; format: functional; design: scale not given: the % may be the effect or the level left
Thielaviopsis paradoxa [2] = assay: Antifungal activity against Ceratocystis paradoxa infected Cavendish banana fruit assessed as reduction in crown rot incubated for 15 min followed by compound washout measured after 2 weeks in presence of surfactant APSA 80 relative to control; format: functional; design: concentration or dose not given beside the values
Lasiodiplodia theobromae [3] = assay: Antifungal activity against Lasiodiplodia theobromae infected Cavendish banana fruit assessed as reduction in crown rot incubated for 15 min followed by compound washout measured after 1 week in absence of surfactant APSA 80 relative to control; format: functional; design: concentration or dose not given beside the values
Colletotrichum musae [4] = assay: Antifungal activity against Colletotrichum musae assessed as reduction in colony diameter at 10 to 160 g/l incubated for 15 min followed by compound washout measured after 7 days in absence of surfactant APSA 80 relative to control; format: functional; design: scale not given: the % may be the effect or the level left
Lasiodiplodia theobromae [5] = assay: Antifungal activity against Lasiodiplodia theobromae infected Cavendish banana fruit assessed as reduction in crown rot incubated for 15 min followed by compound washout measured after 2 weeks in absence of surfactant APSA 80 relative to control; format: functional; design: concentration or dose not given beside the values
Thielaviopsis paradoxa [6] = assay: Antifungal activity against Ceratocystis paradoxa assessed as reduction in colony diameter at 10 to 160 g/l incubated for 15 min followed by compound washout measured after 7 days in absence of surfactant APSA 80 relative to control; format: functional; design: scale not given: the % may be the effect or the level left
Lasiodiplodia theobromae [7] = assay: Antifungal activity against Lasiodiplodia theobromae assessed as reduction in colony diameter at 10 to 160 g/l incubated for 15 min followed by compound washout measured after 7 days in absence of surfactant APSA 80 relative to control; format: functional; design: scale not given: the % may be the effect or the level left
Fusarium verticillioides [8] = assay: Antifungal activity against Fusarium verticillioides infected Cavendish banana fruit assessed as reduction in crown rot incubated for 15 min followed by compound washout measured after 1 week in absence of surfactant APSA 80 relative to control; format: functional; design: concentration or dose not given beside the values
Fusarium verticillioides [9] = assay: Antifungal activity against Fusarium verticillioides infected Cavendish banana fruit assessed as reduction in crown rot incubated for 15 min followed by compound washout measured after 1 week in presence of surfactant APSA 80 relative to control; format: functional; design: concentration or dose not given beside the values
Lasiodiplodia theobromae [10] = assay: Antifungal activity against Lasiodiplodia theobromae assessed as reduction in colony diameter at 10 to 160 g/l incubated for 15 min followed by compound washout measured after 7 days in presence of surfactant APSA 80 relative to control; format: functional; design: scale not given: the % may be the effect or the level left
Colletotrichum musae [11] = assay: Antifungal activity against Colletotrichum musae infected Cavendish banana fruit assessed as reduction in crown rot incubated for 15 min followed by compound washout measured after 1 week in absence of surfactant APSA 80 relative to control; format: functional; design: concentration or dose not given beside the values
Lasiodiplodia theobromae [12] = assay: Antifungal activity against Lasiodiplodia theobromae infected Cavendish banana fruit assessed as reduction in crown rot incubated for 15 min followed by compound washout measured after 1 week in presence of surfactant APSA 80 relative to control; format: functional; design: concentration or dose not given beside the values
Fusarium verticillioides [13] = assay: Growth inhibition of Fusarium verticillioides assessed as inhibition of mycelial growth up to 160 g/l incubated for 15 min followed by compound washout measured after 7 days in absence of surfactant APSA 80; format: functional
Fusarium verticillioides [14] = assay: Antifungal activity against Fusarium verticillioides infected Cavendish banana fruit assessed as reduction in crown rot incubated for 15 min followed by compound washout measured after 3 weeks in absence of surfactant APSA 80 relative to control; format: functional; design: concentration or dose not given beside the values; details: pooled result: one value given for 4 cell lines, strains, targets or settings
Colletotrichum musae [15] = assay: Antifungal activity against Colletotrichum musae infected Cavendish banana fruit assessed as reduction in crown rot incubated for 15 min followed by compound washout measured after 2 weeks in presence of surfactant APSA 80 relative to control; format: functional; design: concentration or dose not given beside the values
Thielaviopsis paradoxa [16] = assay: Antifungal activity against Ceratocystis paradoxa infected Cavendish banana fruit assessed as reduction in crown rot incubated for 15 min followed by compound washout measured after 1 week in absence of surfactant APSA 80 relative to control; format: functional; design: concentration or dose not given beside the values
Thielaviopsis paradoxa [17] = assay: Antifungal activity against Ceratocystis paradoxa infected Cavendish banana fruit assessed as reduction in crown rot incubated for 15 min followed by compound washout measured after 1 week in presence of surfactant APSA 80 relative to control; format: functional; design: concentration or dose not given beside the values
Thielaviopsis paradoxa [18] = assay: Antifungal activity against Ceratocystis paradoxa assessed as reduction in colony diameter at 10 to 160 g/l incubated for 15 min followed by compound washout measured after 7 days in presence of surfactant APSA 80 relative to control; format: functional; design: scale not given: the % may be the effect or the level left
Fusarium verticillioides [19] = assay: Antifungal activity against Fusarium verticillioides assessed as reduction in colony diameter at 10 to 160 g/l incubated for 15 min followed by compound washout measured after 7 days in absence of surfactant APSA 80 relative to control; format: functional; design: scale not given: the % may be the effect or the level left
Fusarium verticillioides [20] = assay: Antifungal activity against Fusarium verticillioides infected Cavendish banana fruit assessed as reduction in crown rot incubated for 15 min followed by compound washout measured after 2 weeks in absence of surfactant APSA 80 relative to control; format: functional; design: concentration or dose not given beside the values
Lasiodiplodia theobromae [21] = assay: Growth inhibition of Lasiodiplodia theobromae assessed as concentration required for inhibition of mycelial growth incubated for 15 min followed by compound washout measured after 7 days in presence of surfactant APSA 80; format: functional
Thielaviopsis paradoxa [22] = assay: Growth inhibition of Ceratocystis paradoxa assessed as inhibition of mycelial growth up to 160 g/l incubated for 15 min followed by compound washout measured after 7 days in presence of surfactant APSA 80; format: functional
Fusarium verticillioides [23] = assay: Antifungal activity against Fusarium verticillioides infected Cavendish banana fruit assessed as reduction in crown rot incubated for 15 min followed by compound washout measured after 3 weeks in presence of surfactant APSA 80 relative to control; format: functional; design: concentration or dose not given beside the values; details: pooled result: one value given for 4 cell lines, strains, targets or settings
Fusarium verticillioides [24] = assay: Antifungal activity against Fusarium verticillioides infected Cavendish banana fruit assessed as reduction in crown rot incubated for 15 min followed by compound washout measured after 2 weeks in presence of surfactant APSA 80 relative to control; format: functional; design: concentration or dose not given beside the values
Thielaviopsis paradoxa [25] = assay: Antifungal activity against Ceratocystis paradoxa infected Cavendish banana fruit assessed as reduction in crown rot incubated for 15 min followed by compound washout measured after 2 weeks in absence of surfactant APSA 80 relative to control; format: functional; design: concentration or dose not given beside the values
Colletotrichum musae [26] = assay: Growth inhibition of Colletotrichum musae assessed as inhibition of mycelial growth up to 160 g/l incubated for 15 min followed by compound washout measured after 7 days in absence of surfactant APSA 80; format: functional
Lasiodiplodia theobromae [27] = assay: Antifungal activity against Lasiodiplodia theobromae infected Cavendish banana fruit assessed as reduction in crown rot incubated for 15 min followed by compound washout measured after 2 weeks in presence of surfactant APSA 80 relative to control; format: functional; design: concentration or dose not given beside the values
Colletotrichum musae [28] = assay: Antifungal activity against Colletotrichum musae assessed as reduction in colony diameter at 10 to 160 g/l incubated for 15 min followed by compound washout measured after 7 days in presence of surfactant APSA 80 relative to control; format: functional; design: scale not given: the % may be the effect or the level left
Fusarium verticillioides [29] = assay: Growth inhibition of Fusarium verticillioides assessed as inhibition of mycelial growth up to 160 g/l incubated for 15 min followed by compound washout measured after 7 days in presence of surfactant APSA 80; format: functional, organism-based
Colletotrichum musae [30] = assay: Antifungal activity against Colletotrichum musae infected Cavendish banana fruit assessed as reduction in crown rot incubated for 15 min followed by compound washout measured after 2 weeks in absence of surfactant APSA 80 relative to control; format: functional; design: concentration or dose not given beside the values
Colletotrichum musae [31] = assay: Antifungal activity against Colletotrichum musae infected Cavendish banana fruit assessed as reduction in crown rot incubated for 15 min followed by compound washout measured after 1 week in presence of surfactant APSA 80 relative to control; format: functional; design: concentration or dose not given beside the values
Lasiodiplodia theobromae [32] = assay: Growth inhibition of Lasiodiplodia theobromae assessed as inhibition of mycelial growth up to 160 g/l incubated for 15 min followed by compound washout measured after 7 days in absence of surfactant APSA 80; format: functional, organism-based

| SMILES | Activity (Fusarium verticillioides [1]) [%] | Activity (Thielaviopsis paradoxa [2]) [%] | Activity (Lasiodiplodia theobromae [3]) [%] | Activity (Colletotrichum musae [4]) [%] | Activity (Lasiodiplodia theobromae [5]) [%] | Activity (Thielaviopsis paradoxa [6]) [%] | Activity (Lasiodiplodia theobromae [7]) [%] | Activity (Fusarium verticillioides [8]) [%] | Activity (Fusarium verticillioides [9]) [%] | Activity (Lasiodiplodia theobromae [10]) [%] | Activity (Colletotrichum musae [11]) [%] | Activity (Lasiodiplodia theobromae [12]) [%] | Activity (Fusarium verticillioides [13]) | Activity (Fusarium verticillioides [14]) [%] | Activity (Colletotrichum musae [15]) [%] | Activity (Thielaviopsis paradoxa [16]) [%] | Activity (Thielaviopsis paradoxa [17]) [%] | Activity (Thielaviopsis paradoxa [18]) [%] | Activity (Fusarium verticillioides [19]) [%] | Activity (Fusarium verticillioides [20]) [%] | further results |
| --- | --- | --- | --- | --- | --- | --- | --- | --- | --- | --- | --- | --- | --- | --- | --- | --- | --- | --- | --- | --- | --- |
| [Ca+2].[Cl-].[Cl-] [CALCIUM CHLORIDE] | 53 | 50 | 0 | 0 | 0 | 28 | 35 | 0 | 0 | 87 | 0 | 0 | inactive | 42 | 50 | 0 | 0 | 56 | 5 | 0 | Activity (Lasiodiplodia theobromae [21]): 100 g/L; Activity (Thielaviopsis paradoxa [22]): inactive; Activity (Fusarium verticillioides [23]): 58%; Activity (Fusarium verticillioides [24]): 50%; Activity (Thielaviopsis paradoxa [25]): 0%; Activity (Colletotrichum musae [26]): inactive; Activity (Lasiodiplodia theobromae [27]): 50%; Activity (Colletotrichum musae [28]): 62%; Activity (Fusarium verticillioides [29]): inactive; Activity (Colletotrichum musae [30]): 0%; Activity (Colletotrichum musae [31]): 0%; Activity (Lasiodiplodia theobromae [32]): inactive |
| [Na+].[O-]Cl [SODIUM HYPOCHLORITE] | 51 | 50 | 0 | 13 | 50 | 18 | 40 | 0 | 0 | 92 | 0 | 0 | 50 g/L | 61 | 50 | 0 | 0 | 67 | 0 | 50 | Activity (Lasiodiplodia theobromae [21]): 20 g/L; Activity (Thielaviopsis paradoxa [22]): 90 g/L; Activity (Fusarium verticillioides [23]): 47%; Activity (Fusarium verticillioides [24]): 50%; Activity (Thielaviopsis paradoxa [25]): 50%; Activity (Colletotrichum musae [26]): 30 g/L; Activity (Lasiodiplodia theobromae [27]): 50%; Activity (Colletotrichum musae [28]): 78%; Activity (Colletotrichum musae [30]): 50%; Activity (Colletotrichum musae [31]): 0% |
| [Cl-].[Na+] [SODIUM CHLORIDE] | 79 | 10 | 0 | 83 | 0 | 71 | 90 | 0 | 0 | 94 | 0 | 0 | inactive | -5 | 10 | 0 | 0 | 84 | 83 | 0 | Activity (Thielaviopsis paradoxa [22]): inactive; Activity (Fusarium verticillioides [23]): 0%; Activity (Fusarium verticillioides [24]): 10%; Activity (Thielaviopsis paradoxa [25]): 0%; Activity (Colletotrichum musae [26]): inactive; Activity (Lasiodiplodia theobromae [27]): 10%; Activity (Colletotrichum musae [28]): 93%; Activity (Fusarium verticillioides [29]): inactive; Activity (Colletotrichum musae [30]): 0%; Activity (Colletotrichum musae [31]): 0%; Activity (Lasiodiplodia theobromae [32]): inactive |

From ChEMBL document CHEMBL3044541, “Control of crown rot-causing fungal pathogens of banana by inorganic salts and a surfactant” (Crop Prot, 2007)
